“Also recorded” adds a separate entry of the source.
Legend:
[1] = biological target: native sheep brain dynamin I (Ovis aries, UniProt A0ACI6PDC7); experiment: PS liposome-stimulated (helical) dynamin I GTPase assay (Malachite Green); type: biochemical; conditions: IC50 with versus without Tween-80
Excerpt: Recombinant dynamin I was used only for the data in Table 2. The dynamin antibodies were from: Dynamin I—in‐house YF2 antibodies, raised in rabbits against two different synthetic peptides: dynamin I 629‐647 ([…]) and dynamin I 765–778 ([…]), used at 1/2000 dilution, as previously described 53; Dynamin II—Santa Cruz (C‐18, sc‐6400, used at 1/1000) and Dynamin III—Santa Cruz (P‐13, sc‐69472, used at 1/500 dilution).
The Malachite Green colorimetric GTPase assay was as described 10. Dynamin I activity was measured in its SAI activity state or was stimulated by three different methods. As each stimulus activates dynamin to different extents, each assay required different dynamin concentrations. First, maximal dynamin activity was stimulated by sonicated PS liposomes 10. […] Finally, dynamin (500 nM) SAI activity was measured using high concentrations of dynamin, which promote its cooperative self‐assembly into rings (but not helices) 26. […] After the Vmax and Km values were determined, the data were transformed using the Lineweaver–Burke equation, 1/v = 1/Vmax + (Km/Vmax)(1/[S]).

[2] = system: Tfn-A594 uptake in U2OS cells; experiment: Automated quantitative CME assay: Tfn-A594 uptake; type: cell-based; conditions: for CME IC50 (μM) / IC50: Tfn-A594 uptake, U2OS, 30-min preincubation, serum-free; for IC50: Homo sapiens, read-out: CME IC50
Protocol: To determine whether the Dyngo compounds are widespread cell‐permeable and endocytosis inhibitors, CME of fluorescent Tfn was compared in an automated quantitative endocytosis assay in U2OS cells. The assay consisted of over 1200 cells under serum‐free conditions; after preincubation with each analog for 30 min the uptake of fluorescent Tfn was measured. We refer to this endocytosis as non‐neuronal CME to distinguish it from CME of synaptic vesicles in presynaptic terminals of neurons, which is referred to as synaptic vesicle endocytosis (SVE). In these cells, Tfn uptake is presumed to be mediated by dynamin II, because this is the only isoform of dynamin that they express, as determined by western blot (Figure S6). […] There was no apparent correlation between in vitro and in‐cell activity, with potent dynamin‐active compounds like 1a and 14a having no effect on non‐neuronal CME (Table 1). This might be explained by low membrane permeability of these analogs, their cellular metabolism or rapid cellular efflux mechanisms.
Quantitative analysis of the inhibition of Alexa 594‐Tfn endocytosis in U2OS cells was performed on large numbers of serum‐starved cells as described 10. Synaptic vesicle recycling in cultured CGNs was monitored using FM1‐43 as described 57 (see Supporting Information). Dynamin‐independent endocytosis was measured using internalization of CT in NIH3T3 cells (using Tfn as a control) as described previously 58 with minor changes (see Supporting Information). The average number of cells for each data point was ˜1200. IC50 values were calculated using GraphPad Prism 5 and data were expressed as mean ± 95% confidence interval (CI) for three wells and ˜1200 cells.

dynamin = system: dynamin; set-up: method as in PMID 19459681; conditions: read-out: dynamin inhibitor potency; cited from earlier work

Sequence of native sheep brain dynamin I (A0ACI6PDC7 entry or part of it): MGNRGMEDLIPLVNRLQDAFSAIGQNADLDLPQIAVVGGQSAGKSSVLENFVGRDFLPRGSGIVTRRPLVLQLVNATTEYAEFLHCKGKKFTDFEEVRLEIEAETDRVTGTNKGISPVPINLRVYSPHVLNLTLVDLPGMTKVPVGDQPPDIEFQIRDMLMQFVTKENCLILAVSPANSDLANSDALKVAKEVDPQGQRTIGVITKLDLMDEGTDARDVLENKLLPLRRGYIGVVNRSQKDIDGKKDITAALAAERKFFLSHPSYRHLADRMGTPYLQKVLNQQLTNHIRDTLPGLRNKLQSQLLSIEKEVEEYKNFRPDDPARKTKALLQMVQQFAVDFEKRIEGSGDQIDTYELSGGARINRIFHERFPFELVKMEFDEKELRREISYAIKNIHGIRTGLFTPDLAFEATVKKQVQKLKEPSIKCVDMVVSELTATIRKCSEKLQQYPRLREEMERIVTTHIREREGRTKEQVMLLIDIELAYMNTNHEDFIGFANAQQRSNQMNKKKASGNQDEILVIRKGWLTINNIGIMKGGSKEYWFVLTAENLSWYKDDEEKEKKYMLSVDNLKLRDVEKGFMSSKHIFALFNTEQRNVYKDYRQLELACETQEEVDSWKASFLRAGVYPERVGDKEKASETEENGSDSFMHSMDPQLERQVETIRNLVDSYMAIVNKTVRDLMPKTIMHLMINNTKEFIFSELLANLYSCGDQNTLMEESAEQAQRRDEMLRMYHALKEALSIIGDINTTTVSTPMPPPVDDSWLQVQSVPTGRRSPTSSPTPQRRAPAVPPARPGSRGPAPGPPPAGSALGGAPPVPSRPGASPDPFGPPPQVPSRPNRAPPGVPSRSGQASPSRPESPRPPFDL

O=C(N/N=C/c1ccc(O)cc1O)c1cc2ccccc2cc1O [1a, (E)-N'-(2,4-Dihydroxybenzylidene)-3-hydroxy-2-naphthohydrazide]
detergent (Tween) sensitivity: fold potency change on removal of Tween [1]: < 10 fold
CME IC50 (μM) [2]: little or no effect; also recorded: Not active (n = 3)

O=C(N/N=C/c1ccc(O)c(O)c1O)c1cc2ccccc2cc1O [3a, (E)-3-Hydroxy-N'-(2,3,4-trihydroxybenzylidene) -2-naphthohydrazide]
IC50 [2]: 9.8 ± 1.5 µM

O=C(N/N=C/c1cc(O)c(O)c(O)c1)c1cc2ccccc2cc1O [5a, (E)-3-Hydroxy-N'-(3,4,5-trihydroxybenzylidene) -2-naphthohydrazide]
IC50 [2]: 6.2 ± 2 µM
times more potent than dynasore in CME assay ([2]; same conditions, U2OS Tfn uptake): six times more potent

O=C(N/N=C/c1cc(O)cc(O)c1)c1cc2ccccc2cc1O [8a, (E)-N'-(3,5-Dihydroxybenzylidene)-3-hydroxy-2-naphthohydrazide]
IC50 [2]: 179 ± 20 µM

CC(=O)Nc1ccc(/C=N/NC(=O)c2cc3ccccc3cc2O)cc1 [10a, (E)-N-(4-{[2-(3-hydroxy-2-naphthoyl)hydrazono]methyl}phenyl)acetamide]
CME IC50 (μM) [2]: Not active (n = 2)

Cc1[nH]c2ccccc2c1/C=N/NC(=O)c1cc2ccccc2cc1O [11a, (E)-3-hydroxy-N'-((2-methyl-1H-indol-3-yl)methylene)-2-naphthohydrazide]
IC50 [2]: 63.4 ± 4.4 µM

O=C(NN=Cc1cnc2ccccc2n1)c1cc2ccccc2cc1O [12a, 3-Hydroxynaphthalene-2-carboxylic acid quinoxaline-2-ylmethylenehydrazide]
CME IC50 (μM) [2]: Not active (n = 2)

O=C(N/N=C/c1ccc2nonc2c1)c1cc2ccccc2cc1O [13a, (E)-N'-(benzo[c][1,2,5]oxadiazol-5-ylmethylene)-3-hydroxy-2-naphthohydrazide]
CME IC50 (μM) [2]: Not active (n = 3)

O=C(N/N=C/c1ccc2nsnc2c1)c1cc2ccccc2cc1O [14a, (E)-N'-(benzo[c][1,2,5]thiadiazol-5-ylmethylene)-3-hydroxy-2-naphthohydrazide]
CME IC50 (μM) [2]: no effect; also recorded: Not active (n = 4)

CCCCCCCCNC(=O)C(C#N)=Cc1cn(CCN(C)C)c2ccccc12 [Dynole 34‐2, 2‐cyano‐3‐(1‐(2‐(dimethylamino)ethyl)‐1H‐indol‐3‐yl)‐N‐octylacrylamide]
IC50 (dynamin): 1300 ± 300 nM

Reference: PMC4138991, “Building a Better Dynasore: The Dyngo Compounds Potently Inhibit Dynamin and Endocytosis” (Traffic (Copenhagen, Denmark), 2013)
